# According to PubChem BioAssay AID1963849 (Molecular Pharmacology Branch, DTP, NCI, 2024):
# pIC50: −log10 of the molar value.
# Tested on: 299254-011-R-J1-PDC complex spheroid viability
# Assay: Anticancer human tumor 299254-011-R-J1-PDC patient-derived melanoma cell line growth inhibition [POLQ]
# Details: for pIC50: curve of first compound; for viability, T/C: stronger effect = lower value
# How it was run: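 Complex spheroid viability model combining PDC tumour cells with endothelial (HUVEC) and MSC stromal cells. Novobiocin, ART-558 or RP6685 were tested singly and in combination with standard and investigational anticancer drugs. Each was titrated in half-log steps from near clinical Cmax, or from 10 microM where Cmax was unknown.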
# [1] = second compound 0.0316 µM, first compound 0.00316 µM
# [2] = second compound 0.0316 µM, first compound 0.01 µM
# [3] = second compound 0.0316 µM, first compound 0.0316 µM
# [4] = second compound 0.0316 µM, first compound 0.1 µM
# [5] = second compound 0.0316 µM, first compound 0.316 µM
# [6] = second compound 0.0316 µM, first compound 1 µM
# [7] = second compound 0.1 µM, first compound 0.00316 µM
# [8] = second compound 0.1 µM, first compound 0.01 µM
# [9] = second compound 0.1 µM, first compound 0.0316 µM
# [10] = second compound 0.1 µM, first compound 0.1 µM
# [11] = second compound 0.1 µM, first compound 0.316 µM
# [12] = second compound 0.1 µM, first compound 1 µM
# [13] = second compound 0.316 µM, first compound 0.00316 µM
# [14] = second compound 0.316 µM, first compound 0.01 µM
# [15] = second compound 0.316 µM, first compound 0.0316 µM
# [16] = second compound 0.316 µM, first compound 0.1 µM
# [17] = second compound 0.316 µM, first compound 0.316 µM
# [18] = second compound 0.316 µM, first compound 1 µM
# [19] = second compound 1 µM, first compound 0.00316 µM
# [20] = second compound 1 µM, first compound 0.01 µM
# [21] = second compound 1 µM, first compound 0.0316 µM
# [22] = second compound 1 µM, first compound 0.1 µM
# [23] = second compound 1 µM, first compound 0.316 µM
# [24] = second compound 1 µM, first compound 1 µM
# [25] = second compound 3.16 µM, first compound 0.00316 µM
# [26] = second compound 3.16 µM, first compound 0.01 µM
# [27] = second compound 3.16 µM, first compound 0.0316 µM
# [28] = second compound 3.16 µM, first compound 0.1 µM
# [29] = second compound 3.16 µM, first compound 0.316 µM
# [30] = second compound 3.16 µM, first compound 1 µM
# [31] = second compound 10 µM, first compound 0.00316 µM
# [32] = second compound 10 µM, first compound 0.01 µM
# [33] = second compound 10 µM, first compound 0.0316 µM
# [34] = second compound 10 µM, first compound 0.1 µM
# [35] = second compound 10 µM, first compound 0.316 µM
# [36] = second compound 10 µM, first compound 1 µM
# [37] = second compound 0.0316 µM, first compound 3.16 µM
# [38] = second compound 0.0316 µM, first compound 10 µM
# [39] = second compound 0.1 µM, first compound 3.16 µM
# [40] = second compound 0.1 µM, first compound 10 µM
# [41] = second compound 0.316 µM, first compound 3.16 µM
# [42] = second compound 0.316 µM, first compound 10 µM
# [43] = second compound 1 µM, first compound 3.16 µM
# [44] = second compound 1 µM, first compound 10 µM
# [45] = second compound 3.16 µM, first compound 3.16 µM
# [46] = second compound 3.16 µM, first compound 10 µM
# [47] = second compound 10 µM, first compound 3.16 µM
# [48] = second compound 10 µM, first compound 10 µM
# 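Further: spheroids exposed to drugs for one week before measurement.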
# 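Wherever viability, T/C is given: percent viability relative to DMSO vehicle control taken as 100%.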
smiles,measurement,setting,value
C=CCn1c(=O)c2cnc(Nc3ccc(N4CCN(C)CC4)cc3)nc2n1-c1cccc(C(C)(C)O)n1 + Cc1cccc(N(C)C(=O)C2C(O)CCN2c2nc(C)cc(C(F)(F)F)c2C#N)c1,pIC50,second compound 0.0316 µM,< 6.00
same,pIC50,second compound 0.1 µM,< 6.00
same,pIC50,second compound 0.316 µM,< 6.00
same,pIC50,second compound 1 µM,< 6.00
same,pIC50,second compound 3.16 µM,< 6.00
same,pIC50,second compound 10 µM,< 6.00
same,"viability, T/C",[1],98.3%
same,"viability, T/C",[2],119%
same,"viability, T/C",[3],96%
same,"viability, T/C",[4],116%
same,"viability, T/C",[5],103%
same,"viability, T/C",[6],62.1%
same,"viability, T/C",[7],101%
same,"viability, T/C",[8],103%
same,"viability, T/C",[9],106%
same,"viability, T/C",[10],103%
same,"viability, T/C",[11],90.2%
same,"viability, T/C",[12],67.4%
same,"viability, T/C",[13],111%
same,"viability, T/C",[14],108%
same,"viability, T/C",[15],99.7%
same,"viability, T/C",[16],108%
same,"viability, T/C",[17],108%
same,"viability, T/C",[18],64.2%
same,"viability, T/C",[19],117%
same,"viability, T/C",[20],98.6%
same,"viability, T/C",[21],110%
same,"viability, T/C",[22],99.8%
same,"viability, T/C",[23],90.5%
same,"viability, T/C",[24],57.8%
same,"viability, T/C",[25],104%
same,"viability, T/C",[26],102%
same,"viability, T/C",[27],113%
same,"viability, T/C",[28],103%
same,"viability, T/C",[29],97.2%
same,"viability, T/C",[30],67%
same,"viability, T/C",[31],105%
same,"viability, T/C",[32],109%
same,"viability, T/C",[33],89.4%
same,"viability, T/C",[34],96.5%
same,"viability, T/C",[35],88.2%
same,"viability, T/C",[36],59.3%
Nc1ccn(C2OC(CO)C(O)C2(F)F)c(=O)n1 (stereo not drawn) + Cc1cccc(N(C)C(=O)C2C(O)CCN2c2nc(C)cc(C(F)(F)F)c2C#N)c1,pIC50,second compound 0.0316 µM,7.19
same,pIC50,second compound 0.1 µM,7.13
same,pIC50,second compound 0.316 µM,7.13
same,pIC50,second compound 1 µM,7.10
same,pIC50,second compound 3.16 µM,7.38
same,pIC50,second compound 10 µM,7.12
same,"viability, T/C",[3],66.5%
same,"viability, T/C",[4],41.4%
same,"viability, T/C",[5],31.7%
same,"viability, T/C",[6],37.7%
same,"viability, T/C",[37],40.8%
same,"viability, T/C",[38],36.6%
same,"viability, T/C",[9],66%
same,"viability, T/C",[10],43.7%
same,"viability, T/C",[11],46.8%
same,"viability, T/C",[12],38%
same,"viability, T/C",[39],42.8%
same,"viability, T/C",[40],43.5%
same,"viability, T/C",[15],70.5%
same,"viability, T/C",[16],42.3%
same,"viability, T/C",[17],41.2%
same,"viability, T/C",[18],42%
same,"viability, T/C",[41],35.2%
same,"viability, T/C",[42],35.8%
same,"viability, T/C",[21],76.9%
same,"viability, T/C",[22],44.1%
same,"viability, T/C",[23],33.5%
same,"viability, T/C",[24],33.7%
same,"viability, T/C",[43],49.9%
same,"viability, T/C",[44],40.3%
same,"viability, T/C",[27],59.1%
same,"viability, T/C",[28],43%
same,"viability, T/C",[29],37.1%
same,"viability, T/C",[30],41.1%
same,"viability, T/C",[45],42.5%
same,"viability, T/C",[46],37.6%
same,"viability, T/C",[33],72.8%
same,"viability, T/C",[34],44.2%
same,"viability, T/C",[35],34.1%
same,"viability, T/C",[36],39.8%
same,"viability, T/C",[47],32.9%
same,"viability, T/C",[48],48.1%
CCc1c2c(nc3ccc(O)cc13)-c1cc3c(c(=O)n1C2)COC(=O)[C@]3(O)CC + COC1C(OC(N)=O)C(O)C(Oc2ccc3c(O)c(NC(=O)c4ccc(O)c(CC=C(C)C)c4)c(=O)oc3c2C)OC1(C)C,pIC50,second compound 0.0316 µM,< 6.00
same,pIC50,second compound 0.1 µM,< 6.00
same,pIC50,second compound 0.316 µM,< 6.00
same,pIC50,second compound 1 µM,< 6.00
same,pIC50,second compound 3.16 µM,< 6.00
same,pIC50,second compound 10 µM,< 6.00
same,"viability, T/C",[1],109%
same,"viability, T/C",[2],77.5%
same,"viability, T/C",[3],69.4%
same,"viability, T/C",[4],65.4%
same,"viability, T/C",[5],70.4%
same,"viability, T/C",[6],48.9%
same,"viability, T/C",[7],114%
same,"viability, T/C",[8],91.8%
same,"viability, T/C",[9],64.3%
same,"viability, T/C",[10],64.5%
same,"viability, T/C",[11],66.3%
same,"viability, T/C",[12],57.8%
same,"viability, T/C",[13],91.8%
same,"viability, T/C",[14],87.1%
same,"viability, T/C",[15],77.2%
same,"viability, T/C",[16],64.8%
same,"viability, T/C",[17],61.5%
same,"viability, T/C",[18],56.2%
same,"viability, T/C",[19],112%
same,"viability, T/C",[20],92.1%
same,"viability, T/C",[21],77.9%
same,"viability, T/C",[22],62.5%
same,"viability, T/C",[23],64%
same,"viability, T/C",[24],59.4%
same,"viability, T/C",[25],93.9%
same,"viability, T/C",[26],77.5%
same,"viability, T/C",[27],68.8%
same,"viability, T/C",[28],69.4%
same,"viability, T/C",[29],63%
same,"viability, T/C",[30],56.6%
same,"viability, T/C",[31],99.2%
same,"viability, T/C",[32],89.3%
same,"viability, T/C",[33],71.7%
same,"viability, T/C",[34],60.9%
same,"viability, T/C",[35],63.6%
same,"viability, T/C",[36],48.8%
CC(C)n1c(=O)n(C)c2cnc3cc(F)c(-c4ccc(OCCCN5CCCCC5)nc4)cc3c21 + COC1C(OC(N)=O)C(O)C(Oc2ccc3c(O)c(NC(=O)c4ccc(O)c(CC=C(C)C)c4)c(=O)oc3c2C)OC1(C)C,pIC50,second compound 0.0316 µM,< 5.00
same,pIC50,second compound 0.1 µM,< 5.00
same,pIC50,second compound 0.316 µM,< 5.00
same,pIC50,second compound 1 µM,< 5.00
same,pIC50,second compound 3.16 µM,< 5.00
same,pIC50,second compound 10 µM,< 5.00
same,"viability, T/C",[3],145%
same,"viability, T/C",[4],129%
same,"viability, T/C",[5],109%
same,"viability, T/C",[6],126%
same,"viability, T/C",[37],112%
same,"viability, T/C",[38],111%
same,"viability, T/C",[9],113%
same,"viability, T/C",[10],127%
same,"viability, T/C",[11],128%
same,"viability, T/C",[12],131%
same,"viability, T/C",[39],112%
same,"viability, T/C",[40],91.2%
same,"viability, T/C",[15],121%
same,"viability, T/C",[16],147%
same,"viability, T/C",[17],117%
same,"viability, T/C",[18],121%
same,"viability, T/C",[41],114%
same,"viability, T/C",[42],110%
same,"viability, T/C",[21],113%
same,"viability, T/C",[22],111%
same,"viability, T/C",[23],132%
same,"viability, T/C",[24],107%
same,"viability, T/C",[43],112%
same,"viability, T/C",[44],82.9%
same,"viability, T/C",[27],112%
same,"viability, T/C",[28],130%
same,"viability, T/C",[29],116%
same,"viability, T/C",[30],118%
same,"viability, T/C",[45],123%
same,"viability, T/C",[46],102%
same,"viability, T/C",[33],126%
same,"viability, T/C",[34],128%
same,"viability, T/C",[35],139%
same,"viability, T/C",[36],128%
same,"viability, T/C",[47],135%
same,"viability, T/C",[48],115%
